Results taken from DBAASP.
In brackets after ≈: the same amount, converted by molar mass. Several values for one entry are separate records, joined by “and”; a condition that tells them apart may be missing. Identical values can stand only once. One block for each molecule: values may come before it.

Assays:
Assay in all cases: ≥ marks a high value that may be exact or a test limit, other limits are often not marked, values filed in µg/mL are converted to µM
Staphylococcus aureus = system: Staphylococcus aureus
Bacillus cereus = system: Bacillus cereus
Escherichia coli = system: Escherichia coli
[1] = system: Staphylococcus aureus ATCC 33591
[2] = system: Escherichia coli ATCC 25922
[3] = system: Staphylococcus aureus USA 300
[4] = system: Pseudomonas aeruginosa PAO1
[5] = system: Klebsiella pneumoniae ATCC 13883
Bacillus subtilis = system: Bacillus subtilis
Salmonella typhimurium = system: Salmonella typhimurium
[6] = system: Salmonella enterica subsp. enterica serovar Typhimurium C77-31
[7] = system: Salmonella enterica subsp. enterica serovar Pullorum C79-13
[8] = system: Enterococcus faecalis ATCC 29212
[9] = system: Staphylococcus epidermidis ATCC 12228
[10] = system: Staphylococcus aureus ATCC 29213
[11] = system: Salmonella enterica subsp. enterica serovar Typhimurium ATCC 14028
[12] = system: Pseudomonas aeruginosa ATCC 27853
Escherichia coli UB1005 = system: Escherichia coli UB1005
[13] = system: Staphylococcus aureus ATCC 25923
[14] = system: Acinetobacter baumannii ATCC 19606
Acinetobacter baumannii = system: Acinetobacter baumannii
Klebsiella pneumoniae = system: Klebsiella pneumoniae

SMILES: CC(C)C[C@H](NC(=O)[C@H](CCCCN)NC(=O)[C@H](Cc1ccccc1)NC(=O)[C@@H](NC(=O)[C@@H](NC(=O)CNC(=O)[C@H](CC(C)C)NC(=O)[C@@H](N)Cc1ccccc1)C(C)C)C(C)C)C(=O)N[C@@H](C)C(=O)N[C@H](C(=O)N[C@@H](CCCCN)C(=O)N[C@H](C(=O)N[C@@H](Cc1ccccc1)C(=O)N1CCC[C@H]1C(=O)N[C@@H](C)C(=O)N[C@H](C(=O)N[C@@H](Cc1ccccc1)C(=O)NCC(=O)N[C@@H](CCCCN)C(=O)N[C@H](C(=O)O)C(C)C)C(C)C)C(C)C)C(C)C [FLGVVFKLAVKVFPAVFGKV]
MIC (Staphylococcus aureus): > 118 µM | MIC (Bacillus cereus): ≥ 118 µM | MIC (Escherichia coli): > 118 µM

SMILES: CC(C)C[C@H](NC(=O)[C@H](CC(C)C)NC(=O)[C@H](CCCCN)NC(=O)CNC(=O)[C@H](CC(C)C)NC(=O)[C@H](CC(C)C)NC(=O)[C@H](CC(C)C)NC(=O)[C@H](CC(C)C)NC(=O)[C@H](CO)NC(=O)[C@H](CO)NC(=O)[C@H](CC(C)C)NC(=O)[C@H](CC(C)C)NC(=O)CN)C(N)=O [GLLSSLLLLGKLL]
MIC [4]: > 25 µM | MIC [2]: > 25 µM | MIC [5]: 25 µM (≈ 33.5 µg/mL) | MIC [3]: 3.1 µM (≈ 4.15 µg/mL)

SMILES: CC[C@H](C)[C@H](NC(=O)[C@H](CCCN=C(N)N)NC(=O)[C@@H](NC(=O)[C@@H](NC(=O)[C@@H](NC(=O)CN)C(C)C)C(C)C)C(C)C)C(=O)NCC(=O)N[C@@H](CCCN=C(N)N)C(=O)N[C@H](C(=O)N[C@H](C(=O)N[C@H](C(=O)N[C@@H](CCCN=C(N)N)C(=O)NCC(=O)N[C@H](C(=O)N[C@@H](CCCN=C(N)N)C(=O)N[C@@H](CCCN=C(N)N)C(N)=O)C(C)C)C(C)C)[C@@H](C)CC)C(C)C [GVVVRIGRVIVRGVRR]
MIC (Staphylococcus aureus): 8 µM (≈ 14.3 µg/mL) | MIC (Bacillus subtilis): 4 µM (≈ 7.16 µg/mL) | MIC (Escherichia coli): 8 µM (≈ 14.3 µg/mL) | MIC (Salmonella typhimurium): 4 µM (≈ 7.16 µg/mL)

SMILES: CC(C)C[C@H](NC(=O)[C@H](CC(C)C)NC(=O)[C@H](CCCCN)NC(=O)[C@H](CC(C)C)NC(=O)CNC(=O)[C@H](CC(C)C)NC(=O)[C@H](CO)NC(=O)[C@H](CC(C)C)NC(=O)[C@H](CC(C)C)NC(=O)[C@H](CO)NC(=O)CNC(=O)[C@H](CC(C)C)NC(=O)[C@@H](N)CC(C)C)C(N)=O [LLGSLLSLGLKLL]
MIC [4]: > 25 µM | MIC [2]: > 25 µM | MIC [5]: 25 µM (≈ 33.5 µg/mL) | MIC [3]: 1.6 µM (≈ 2.14 µg/mL)

SMILES: CC(C)C[C@H](NC(=O)[C@@H](NC(=O)[C@@H](NC(=O)[C@@H](N)CC(C)C)C(C)C)[C@@H](C)O)C(=O)N[C@H](C(=O)N[C@@H](Cc1ccccc1)C(=O)N[C@H](C(=O)NCC(=O)NCC(=O)NCC(=O)N[C@@H](Cc1c[nH]c2ccccc12)C(=O)N[C@@H](CCCCN)C(=O)N[C@@H](Cc1c[nH]c2ccccc12)C(=O)N[C@@H](CCCCN)C(=O)N[C@@H](Cc1c[nH]c2ccccc12)C(=O)N[C@@H](CCCCN)C(=O)N[C@@H](CC(N)=O)C(=O)NCC(=O)N[C@@H](CCCCN)C(=O)N[C@@H](Cc1c[nH]c2ccccc12)C(=O)N[C@@H](CCCCN)C(=O)N[C@@H](Cc1c[nH]c2ccccc12)C(=O)N[C@@H](CCCCN)C(=O)N[C@@H](Cc1c[nH]c2ccccc12)C(=O)O)C(C)C)C(C)C [LVTLVFVGGGWKWKWKNGKWKWKW]
MIC [6]: ≥ 128 µM | MIC [7]: 16 µM (≈ 48.3 µg/mL) | MIC [8]: 4 µM (≈ 12.1 µg/mL) | MIC [9]: 32 µM (≈ 96.6 µg/mL) | MIC [10]: 32 µM (≈ 96.6 µg/mL) | MIC [2]: 4 µM (≈ 12.1 µg/mL)

Continued, values first:

MIC (Staphylococcus aureus): > 125 µM | MIC (Bacillus cereus): ≥ 125 µM | MIC (Escherichia coli): > 125 µM
SMILES: CC(C)C[C@H](NC(=O)[C@@H](N)Cc1ccccc1)C(=O)NCC(=O)N[C@H](C(=O)N[C@H](C(=O)N[C@@H](Cc1ccccc1)C(=O)N[C@@H](CCCCN)C(=O)NCC(=O)N[C@@H](C)C(=O)N[C@@H](CO)C(=O)N[C@@H](CCCCN)C(=O)N[C@H](C(=O)N[C@@H](Cc1ccccc1)C(=O)N1CCC[C@H]1C(=O)N[C@@H](C)C(=O)N[C@H](C(=O)N[C@H](C(=O)NCC(=O)N[C@@H](CCCCN)C(=O)N[C@H](C(=O)O)C(C)C)C(C)C)C(C)C)C(C)C)C(C)C)C(C)C [FLGVVFKGASKVFPAVVGKV]

MIC [1]: ≥ 256 µM | MIC [2]: > 256 µM
SMILES: CSCC[C@H](NC(=O)[C@H](CCCN=C(N)N)NC(=O)[C@H](CCCN=C(N)N)NC(=O)[C@H](CC(N)=O)NC(=O)[C@H](CCC(N)=O)NC(=O)[C@@H](N)Cc1ccccc1)C(=O)N[C@@H](CCCCN)C(=O)N[C@@H](Cc1c[nH]c2ccccc12)C(=O)N[C@@H](CCCCN)C(=O)N[C@@H](CCCCN)C(N)=O [FQNRRMKWKK]

MIC [3]: 12.5 µM (≈ 25.6 µg/mL)
SMILES: CC[C@H](C)[C@H](NC(=O)[C@H](CCCN=C(N)N)NC(=O)[C@H](CCC(N)=O)NC(=O)[C@@H](NC(=O)[C@@H](NC(=O)[C@H](CCC(N)=O)NC(=O)[C@H](CCC(N)=O)NC(=O)[C@H](Cc1ccccc1)NC(=O)CN)[C@@H](C)CC)C(C)C)C(=O)N[C@@H](CCCCN)C(=O)N[C@@H](CC(=O)O)C(=O)N[C@@H](Cc1ccccc1)C(=O)N[C@@H](CC(C)C)C(=O)N[C@@H](CCC(N)=O)C(=O)N[C@@H](CC(N)=O)C(=O)N[C@@H](CC(C)C)C(=O)N[C@H](C(N)=O)C(C)C [GFQQIVQRIKDFLQNLV]

MIC [6]: ≥ 32 µM | MIC [7]: 16 µM (≈ 32.5 µg/mL) | MIC [8]: 16 µM (≈ 32.5 µg/mL) | MIC [9]: 16 µM (≈ 32.5 µg/mL) | MIC [11]: 32 µM (≈ 65 µg/mL) | MIC [12]: 32 µM (≈ 65 µg/mL) | MIC (Escherichia coli UB1005): 16 µM (≈ 32.5 µg/mL)
SMILES: CC[C@H](C)[C@H](NC(=O)[C@H](CCCCN)NC(=O)[C@H](CCCN=C(N)N)NC(=O)[C@H](CC(C)C)NC(=O)[C@H](Cc1ccccc1)NC(=O)[C@H](CCCN=C(N)N)NC(=O)CNC(=O)[C@H](Cc1ccccc1)NC(=O)[C@@H](N)CCCN=C(N)N)C(=O)N[C@@H](CCCN=C(N)N)C(=O)N[C@@H](CCCN=C(N)N)C(=O)N[C@@H](Cc1ccccc1)C(=O)N[C@@H](CCCN=C(N)N)C(=O)N1CCC[C@H]1C(=O)N[C@@H](CCCCN)C(N)=O [RFGRFLRKIRRFRPK]

MIC [4]: 2.5 µM and 5.2 µM | MIC [11]: 1.5 µM (≈ 3.14 µg/mL) | MIC [13]: 26.3 µM and 30 µM | MIC [14]: 6.2 µM (≈ 13 µg/mL) | MIC [5]: 2.6 µM (≈ 5.44 µg/mL)
SMILES: CC(C)C[C@H](NC(=O)[C@H](CCCN=C(N)N)NC(=O)[C@H](CCCN=C(N)N)NC(=O)[C@H](C)NC(=O)[C@H](Cc1c[nH]c2ccccc12)NC(=O)CNC(=O)[C@H](CCCN=C(N)N)NC(=O)[C@@H](N)CCCN=C(N)N)C(=O)N[C@@H](C)C(=O)N[C@@H](Cc1ccccc1)C(=O)N[C@@H](C)C(=O)N[C@@H](Cc1ccccc1)C(=O)N[C@@H](C)C(=O)N[C@@H](Cc1ccccc1)C(=O)NCC(=O)N[C@@H](CCCN=C(N)N)C(=O)N[C@@H](CCCN=C(N)N)C(N)=O [RRGWARRLAFAFAFGRR]

MIC (Acinetobacter baumannii): 3.2 µM (≈ 6.09 µg/mL) | MIC [2]: 15.1 µM and 26.6 µM | MIC [13]: > 30 µM | MIC (Klebsiella pneumoniae): 1.3 µM (≈ 2.47 µg/mL) | MIC [5]: 30 µM (≈ 57.1 µg/mL)
SMILES: CC(C)C[C@H](NC(=O)[C@H](CCCN=C(N)N)NC(=O)[C@H](CCCN=C(N)N)NC(=O)[C@H](C)NC(=O)[C@H](Cc1c[nH]c2ccccc12)NC(=O)CNC(=O)[C@H](CCCN=C(N)N)NC(=O)[C@@H](N)CCCN=C(N)N)C(=O)N[C@H](C(=O)N[C@@H](Cc1ccccc1)C(=O)N[C@@H](C)C(=O)N[C@@H](Cc1ccccc1)C(=O)NCC(=O)N[C@@H](CCCN=C(N)N)C(=O)N[C@@H](CCCN=C(N)N)C(N)=O)C(C)C [RRGWARRLVFAFGRR]
